Experimental data: ChEMBL document CHEMBL3352161, “Phorbaketals L-N, cytotoxic sesterterpenoids isolated from the marine sponge of the genus Phorbas” (Bioorg Med Chem Lett, 2014)

What was measured:
Assay type in all cases: functional, cell-based
ACHN = test: Cytotoxicity against human ACHN cells after 72 hrs by MTT assay
[1] = Cytotoxicity against human PANC1 cells after 72 hrs by MTT assay; settings: PANC-1, 72 h
A498 = test: Cytotoxicity against human A498 cells after 72 hrs by MTT assay; settings: A498, 72 h

SMILES	IC50 (ACHN) [µM]	IC50 [1] [µM]	IC50 (A498) [µM]
CC(C)=CCC/C(C)=C/[C@@H]1CC(C)=C[C@]2(C=C(CO)[C@H]3CC(=O)C(C)=C[C@H]3O2)O1	3	13.5	4.4
C=C(CCC=C(C)C)[C@H](O)[C@@H]1CC(C)=C[C@]2(C=C(CO)[C@H]3CC(=O)C(C)=C[C@H]3O2)O1	> 50	50	17.3
C=C(CCC1OC1(C)C)[C@H](Br)[C@@H]1CC(C)=C[C@]2(C=C(CO)[C@H]3CC(=O)C(C)=C[C@H]3O2)O1 (stereo not given in full)	24.4	11.4	18.7
CCN(CC)CCNC(=O)c1c(C)[nH]c(/C=C2\C(=O)Nc3ccc(F)cc32)c1C [SUNITINIB MALATE]	2		
O=c1[nH]cc(F)c(=O)[nH]1 [FLUOROURACIL]		50	
CO[C@H]1C[C@@H]2CC[C@@H](C)[C@@](O)(O2)C(=O)C(=O)N2CCCC[C@H]2C(=O)O[C@H]([C@H](C)C[C@@H]2CC[C@@H](OC(=O)C(C)(CO)CO)[C@H](OC)C2)CC(=O)[C@H](C)/C=C(\C)[C@@H](O)[C@@H](OC)C(=O)[C@H](C)C[C@H](C)/C=C/C=C/C=C/1C [TEMSIROLIMUS]			0.35
C=C(C)[C@@H](CC/C(C)=C/[C@@H]1CC(C)=C[C@]2(C=C(CO)[C@H]3CC(=O)C(C)=C[C@H]3O2)O1)OO	> 50	> 50	> 50
